Test results: patent publication US9162984B2, “Small-molecule modulators of melanin expression” (University of Rochester, priority 2007, dated 2015)

Experiments:
Format in all cases: cell-based, mice
[1] = test system: melan-a murine melanocyte cell line; experiment: Melanin induction screening in melan-a melanocytes; conditions: for activity for inducing melanin production: initial screening, 2.5 μM, 3 days, melanin normalized to cell count, vs DMSO
Source text: (§1) The melan-a murine melanocyte cell line was chosen for library screening. This is a non-tumorogenic line of melanocytes derived from the skin of C57Bl/6J mice (Bennett et al., Int. J. Cancer 39:414 (1987), which is hereby incorporated by reference in its entirety). These cells are ideal for phenotypic melanin screening as they proliferate quickly, are highly differentiated, and have been extensively studied (Snyder et al., Chemistry & Biology 12(4):477 (2005), which is hereby incorporated by reference in its entirety). Melanocytes were cultured in RPMI 1640 media supplemented with 10% FBS and 0.2 μM TPA, at 37° C. under 5% CO2, 95% atmosphere. For screening, 1×10^5 melan-a melanocytes were plated in 24 well tissue culture plates in a volume of 2 ml. After 18 hr incubation, 1 ml of media was removed and replaced by 1 ml media doped with small molecule, forskolin positive control, or DMSO vehicle control for 3 days. Initial screening was performed at a 2.5 μM dose (0.01% DMSO). Cells were harvested by trypsinization, washed 2× with PBS (pH 7.2), and counted by hemocytometry. Cell counts were used to assess treatment effects on cell proliferation. Melanin production was quantified by lysing cell pellets in 800 μl of 1 M NaOH for 2 hrs on ice, vigorously resuspending the lysed material by pipette, reading the absorbance at 490 nm of 200 μl aliquots of total lysate, and referencing to a standard synthetic melanin (Sigma) curve. The 75 member library was screened in triplicate. Melanin production was normalized to cell count (A490/million cells) and fold change against DMSO was calculated (FIG. 2).

[2] = test system: melan-a murine melanocyte cell line; experiment: Cell counts by hemocytometry to assess treatment effects on cell proliferation
Source text: as §1, with “After 18 hr incubation, 1 ml of media was removed and replaced by 1 ml media doped with small molecule, forskolin positive control, or DMSO vehicle control for 3 days. Initial screening was performed at a 2.5 μM dose (0.01% DMSO).” left out, “Cell counts were used to assess treatment effects on cell proliferation.” left out, “The 75 member library was screened in triplicate.” left out

Tyrosinase [3] = experiment: Tyrosinase activity assay (tritiated water from L-tyrosine-3,5-[3H]) in lysates of treated melanocytes; conditions: 2.5 μM, 3 days; to a lesser degree than forskolin positive control
Source text: To further understand the mode of action for A7, tyrosinase activity was quantitated. Tyrosinase functions to hydroxylate tyrosine to dopaquinone and L-DOPA in the first step of melanin production (Ito, Pigment Cell Res. 16:230 (2003), which is hereby incorporated by reference in its entirety). As such, increased tyrosinase activity leads to increased melanin production. Tyrosinase activity can be measured by monitoring the production of tritiated water upon the hydroxylation of L-tyrosine-3,5-[^3H] to L-DOPA (Pomerantz, J. Biol. Chem. 241(1):161 (1966); Park et al., J. Biol. Chem. 268:11742 (1993), which are hereby incorporated by reference in their entirety).
Similarly to library screening, in quadruplet, melanocytes were cultured with and without 2.5 μM small molecule treatment for 3 days. Resulting cell pellets were lysed in 75 μl of 80 mM K2PO4, 1% CHAPS, 2 mM PMSF, and PICO2 protease inhibitor cocktail (CalBioChem) for 2 hours on ice. Lysates were then pelleted (10 minutes, 4° C., 10,000 rpm) and protein concentration was determined by Bradford assay. […] Aliqouts of 1.0 ml of the tritiated water containing supernatant were transferred to scintillation vials containing 5.0 ml scintillation fluid, and ^3H levels were counted. […]

melan-a melanocytes = experiment: Melanocyte dendricity by hematoxylin staining; conditions: 2.5 μM, 72 hours; untreated 36%
Experimental: Melanocytes are highly dendritic cells, and dendricity has been correlated with melanin production (Kosano et al., Biochim. Biophys. Acta 1499:11 (2000); Scott et al., J. Invest. Dermatol. 126:855 (2006), which are hereby incorporated by reference in their entirety). Dendricity was assessed by histochemical hematoxylin staining of melan-a melanocytes with and without 2.5 μM A7 treatment. 1×10^4 melan-a melanocytes were cultured onto vitrogen coated cover slips and treated with 2.5 μM A7 or vehicle control for 72 hours. Cells were fixed in 3.7% formalin/PBS, stained with hematoxylin, and imaged. Dendrites per cell were manually quantitated, and the percentage of cells with greater than 2 dendrites was calculated.

Tyrosinase [4] = experiment: Western blot analysis of cellular tyrosinase levels; conditions: treated melanocytes

Row | SMILES | activity for inducing melanin production [1] | further results
1 | CCc1nc2ccccc2cc1C(=O)NCCc1ccc(F)cc1 [Compound A5, N-(4-fluorophenethyl)-2-ethylquinoline-3-carboxamide] | some activity | –
2 | CCc1nc2ccccc2cc1C(=O)NCCc1cccc(F)c1 [Compound A7, N-(3-fluorophenethyl)-2-ethylquinoline-3-carboxamide] | some activity | concentration giving the optimal melanogenic response ([1]; dose response, melanin quantity normalized to DMSO): 2.5 µM; ranking of melanin induction among hits ([1]; subsequent analysis of library hits): most active hit; effect on cell proliferation in dose response ([2]; concentrations up to 5 μM): no significant effect on cell proliferation; cytotoxic effects in cell culture ([2]; melanocytes in culture): does not exhibit cytotoxic effects; tyrosinase activity in melanocyte culture (Tyrosinase [3]): increases tyrosinase activity; percentage of cells with greater than 2 dendrites (melan-a melanocytes): 69%; cellular levels of tyrosinase (Tyrosinase [4]): not altered
3 | O=C(NCc1ccco1)c1ccco1 [Compound C1, N-((furan-2-yl)methyl)furan-2-carboxamide] | some activity | –
4 | CCCCNC(=O)c1ccco1 [Compound C2, N-butylfuran-2-carboxamide] | some activity | –
5 | O=C(NCCc1ccc(F)cc1)c1ccco1 [Compound C5, N-(4-fluorophenethyl)furan-2-carboxamide] | some activity | –
6 | O=C(NCCc1cccc(F)c1)c1ccco1 [Compound C7, N-(3-fluorophenethyl)furan-2-carboxamide] | some activity | –
7 | CC1(C)CCCC(C)(C)N1C(=O)c1ccco1 [Compound C10, (furan-2-yl)(2,2,6,6-tetramethylpiperidin-1-yl)methanone] | some activity | –
8 | CC1(C)CCCC(C)(C)N1C(=O)c1c(F)c(F)c(F)c(F)c1F [Compound D10, (2,2,6,6-tetramethylpiperidin-1-yl)(perfluorophenyl)methanone] | some activity | –
9 | Cc1cc(NC(=O)c2c(F)c(F)c(F)c(F)c2F)no1 [Compound D12, 2,3,4,5,6-pentafluoro-N-(5-methylisoxazol-3-yl)benzamide] | some activity | –
10 | O=C(c1ccc2c(c1)OCO2)N1CCN(c2ccc(F)cc2)CC1 [Compound E4, (benzo[d][1,3]dioxol-5-yl)(4-(4-fluorophenyl)piperazin-1-yl)methanone] | some activity | –
